Laboratory results from ChEMBL document CHEMBL1201862, “PubChem BioAssay data set” (2004).
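Test compounds were applied to cells in 96-well plates for 48 hours at 5 doses. GI50 is the concentration that inhibits growth by half.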 Activity calls are given as the source filed them. No stated cut-off is given here; in the data, active = GI50 up to about 1.1 µM and inactive = higher.

Columns and labels:
Test in all cases: growth of human tumour cells (NCI), 48 h
K562 = test system: K562
UACC-62 = test system: UACC-62
A498 = test system: A498
IGROV-1 = test system: IGROV-1
SR = test system: SR
OVCAR-8 = test system: OVCAR-8
LOX IMVI = test system: LOX IMVI
SF-295 = test system: SF-295
BT-549 = test system: BT-549
SK-OV-3 = test system: SK-OV-3
TK-10 = test system: TK-10
COLO 205 = test system: COLO 205
NCI-H23 = test system: NCI-H23
SW-620 = test system: SW-620
HCT-15 = test system: HCT-15
UO-31 = test system: UO-31
SK-MEL-28 = test system: SK-MEL-28
MDA-N = test system: MDA-N
RPMI-8226 = test system: RPMI-8226
RXF 393 = test system: RXF 393

Measured: GI50

Clc1sc(Cl)c2c1[C@H](Cl)C[C@@H]2Cl
inactive: K562 6 µM | UACC-62 22.2 µM | A498 84.1 µM | IGROV-1 17.4 µM | SR 58.9 µM | OVCAR-8 18.4 µM | LOX IMVI 9.46 µM | SF-295 35.3 µM | BT-549 26.5 µM | SK-OV-3 54 µM | TK-10 39.5 µM | COLO 205 29.2 µM | NCI-H23 24.4 µM | SW-620 3.87 µM | UO-31 14.6 µM | SK-MEL-28 17.5 µM | MDA-N 20.6 µM
20.2 µM: HCT-15

CC(C)(/C=N\O)NO
inactive: K562 > 10 µM | SR > 10 µM | OVCAR-8 > 10 µM | LOX IMVI > 10 µM | SF-295 > 10 µM | RPMI-8226 > 10 µM | RXF 393 > 10 µM | BT-549 > 10 µM | TK-10 > 10 µM | COLO 205 > 10 µM | NCI-H23 > 10 µM | SW-620 > 10 µM | UO-31 > 10 µM | MDA-N > 10 µM
> 10 µM: HCT-15

CC1=C(C(=O)OC(C)C)C(c2ccccc2[N+](=O)[O-])C(C(=O)OC(CO[N+](=O)[O-])CO[N+](=O)[O-])=C(C)N1 (centres undefined)
3.08 µM: HCT-15
inactive: K562 2.81 µM | UACC-62 2.07 µM | IGROV-1 5.26 µM | SR 18.6 µM | OVCAR-8 3.28 µM | LOX IMVI 2.68 µM | SF-295 2.1 µM | RPMI-8226 2.98 µM | RXF 393 2.7 µM | BT-549 3.52 µM | SK-OV-3 3.15 µM | TK-10 6.27 µM | COLO 205 5.24 µM | NCI-H23 4.27 µM | SW-620 4.03 µM | UO-31 3.56 µM | SK-MEL-28 4.01 µM | MDA-N 2.79 µM

CCOC(=O)c1c(NC(=S)Nc2ccc(C)cc2)sc2c1CCN(C)C2
inactive: K562 > 100 µM | UACC-62 > 100 µM | A498 59 µM | IGROV-1 > 100 µM | OVCAR-8 > 100 µM | SF-295 > 100 µM | RPMI-8226 > 100 µM | RXF 393 > 100 µM | BT-549 > 100 µM | TK-10 > 100 µM | COLO 205 > 100 µM | NCI-H23 > 100 µM | UO-31 > 100 µM | MDA-N > 100 µM
> 100 µM: HCT-15

O=C1CSC(c2c[nH]c3ccccc23)N1c1ccc(Cl)cc1 (centres undefined)
> 100 µM: HCT-15
inactive: K562 > 100 µM | UACC-62 > 100 µM | A498 > 100 µM | IGROV-1 > 100 µM | OVCAR-8 > 100 µM | SF-295 > 100 µM | RPMI-8226 > 100 µM | RXF 393 > 100 µM | BT-549 > 100 µM | SK-OV-3 > 100 µM | TK-10 > 100 µM | COLO 205 > 100 µM | NCI-H23 > 100 µM | SW-620 > 100 µM | UO-31 > 100 µM | SK-MEL-28 > 100 µM | MDA-N > 100 µM

COc1ccc(-n2c(=O)n(C)c(=O)n2-c2c(C)c(C)c(C)c(C)c2C)cc1
inactive: K562 > 100 µM | UACC-62 > 100 µM | A498 > 100 µM | IGROV-1 > 100 µM | OVCAR-8 > 100 µM | LOX IMVI > 100 µM | SF-295 > 100 µM | RPMI-8226 > 100 µM | RXF 393 > 100 µM | BT-549 > 100 µM | SK-OV-3 > 100 µM | TK-10 > 100 µM | COLO 205 > 100 µM | NCI-H23 > 100 µM | SW-620 > 100 µM | UO-31 > 100 µM | SK-MEL-28 > 100 µM | MDA-N > 100 µM
> 100 µM: HCT-15
